{
  "source": "patent US5605906A",
  "about": "“Cannabinoid receptor agonists” (Merck Frosst Canada, Inc., priority 1995, dated 1997)",
  "key": {"[1]": {"target": "T1, human peripheral cannabinoid (CB2) receptor (Homo sapiens, UniProt P34972)", "T1 construct": "expressed in transfected cells; host or cells: CHO-K1", "T1 sequence (P34972 whole entry)": "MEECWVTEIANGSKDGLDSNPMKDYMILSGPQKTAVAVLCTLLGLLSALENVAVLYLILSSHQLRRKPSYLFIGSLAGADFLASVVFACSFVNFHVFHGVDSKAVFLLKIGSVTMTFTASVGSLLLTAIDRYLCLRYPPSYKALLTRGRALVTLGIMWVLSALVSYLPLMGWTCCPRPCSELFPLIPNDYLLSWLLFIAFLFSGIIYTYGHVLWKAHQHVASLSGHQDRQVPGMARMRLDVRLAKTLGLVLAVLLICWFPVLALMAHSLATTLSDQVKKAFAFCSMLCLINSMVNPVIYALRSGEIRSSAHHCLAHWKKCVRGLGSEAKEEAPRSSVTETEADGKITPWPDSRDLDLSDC", "test": "CB2 receptor binding assay ([3H]Win 55212-2, CHO-K1 membranes)", "details": "[3H]Win 55212-2 2.4 nM, pH 7.4, 30 °C, 40 min"}, "[2]": {"target": "T1, human peripheral cannabinoid (CB2) receptor", "test": "CB2 functional assay: cAMP assay in CHO-K1 cells expressing the CB2 receptor", "format": "cell-based", "details": "forskolin, 37 °C, 15 min", "quoted_text": "Stable cell lines were constructed expressing either the human peripheral cannabinoid (CB2) receptor or the human central cannabinoid (CB 1) receptor as described previously (Gerard. et al., Molecular cloning of a human cannabinoid receptor which is also expressed in testis. Biochem. J. (279)129-134, 1991.). Membranes were prepared from CHO-K1 cells stably expressing the CB2 receptor and HEK293(EBNA) cells stably expressing the CB 1 receptor by differential centrifugation (1000×g for 10 min, then 100,000×g for 30 min, both at 4° C.) following lysis of the cells by nitrogen cavitation at 800 psi for 15 min on ice, as previously described (Frey, E.A., et al., Characterization of the leukotriene D4 receptor in dimethylsulphoxide-dufferentiated U937 cells: comparison with the leukotriene D4 receptor in human-lung and guinea-pig lung. Eur. J. Pharma. (244) 239-250, 1993.). […]\nCB2--CHO-K1 cells were seeded at 10^6 cells per 175 cm^2 T-flask in MEM alpha growth medium (MEM alpha medium containing 25 mM HEPES/KOH (pH 7.4), 10% heat inactivated fetal bovine serum, 20 units/ml penicillin G, 20 mg/ml streptomycin sulfate and 500 mg/ml G418) (GIBCO-BRL Canada, Burlington, ON). […] Cell viability was always >96% as determined by trypan blue exclusion. […]"}, "[3]": {"target": "T2, human central cannabinoid (CB 1) receptor (Homo sapiens, UniProt P21554)", "T2 construct": "expressed in transfected cells; host or cells: HEK293(EBNA)", "T2 sequence (P21554 whole entry)": "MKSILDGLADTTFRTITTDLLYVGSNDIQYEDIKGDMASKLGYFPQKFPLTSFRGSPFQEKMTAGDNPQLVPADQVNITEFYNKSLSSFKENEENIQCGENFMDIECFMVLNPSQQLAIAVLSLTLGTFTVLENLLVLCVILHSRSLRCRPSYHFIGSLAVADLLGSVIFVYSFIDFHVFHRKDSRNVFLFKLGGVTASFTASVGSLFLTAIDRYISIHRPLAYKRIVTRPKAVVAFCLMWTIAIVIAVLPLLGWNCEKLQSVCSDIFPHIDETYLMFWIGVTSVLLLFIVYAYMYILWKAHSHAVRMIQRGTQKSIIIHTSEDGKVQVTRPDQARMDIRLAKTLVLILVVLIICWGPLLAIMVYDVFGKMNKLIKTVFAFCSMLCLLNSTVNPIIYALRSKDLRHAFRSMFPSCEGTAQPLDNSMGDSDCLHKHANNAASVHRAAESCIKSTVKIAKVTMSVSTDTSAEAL", "test": "CB1 receptor binding assay ([3H]CP55940, HEK293(EBNA) membranes)", "details": "[3H]CP55940 0.6 nM, pH 7.4, 30 °C, 60 min", "method": "The compound of Formula I can be tested using the following assays to determine their affinity for binding to the cannabinoid receptors.\nStable cell lines were constructed expressing either the human peripheral cannabinoid (CB2) receptor or the human central cannabinoid (CB 1) receptor as described previously (Gerard. et al., Molecular cloning of a human cannabinoid receptor which is also expressed in testis. Biochem. J. (279)129-134, 1991.). […]\nCB2 receptor binding assays were performed in 0.2 ml of 10 mM HEPES/KOH (pH 7.4) containing 1 mM EDTA, 0.3 mg/ml human serum albumin (HSA), 1 mM MgCl2, and 2.4 nM [^3 H]Win 55212-2 (Dupont-NEN Canada, Mississauga, ON). […] The residual [^3 H]Win 55212-2 or [^3 H]CP55940(-) bound to the filters was determined by liquid scintillation counting following a 6h equilibration in 5 ml Biofluor O) (Dupont-NEN Canada, Mississauga, ON) scintillation cocktail (efficiency for tritium was approximately 55%). […]"}},
  "note": "Several values for one entry are separate records, joined by “and”; a condition that tells them apart may be missing. Identical values can stand only once.",
  "data": [
    {"smiles": "COc1ccc2c(c1)N(C)C(C)(C)[C@@H]1CC[C@@H](C)C[C@@H]21", "note": "[Example 1, (6aR,9R,10aR)-3-Methoxy-5,6,6,9-tetramethyl-5,6,6a,7,8,9,10,10a-octahydro-phenanthridine]", "values": [
      {"measurement": "Ki", "setting": "[1]", "result": "73 nM and 55 nM"},
      {"measurement": "EC50", "setting": "[2]", "result": "68 nM and 149 nM"},
      {"measurement": "IC50", "setting": "[3]", "result": "22300 nM and 27400 nM"}
    ]},
    {"smiles": "CCCCCCC(C)(C)c1cc(O)c2c(c1)OC(C)(C)[C@@H]1CC=C(CO)C[C@@H]21", "note": "[HU-210, reference compound]", "values": [
      {"measurement": "IC50", "setting": "[3]", "result": "2.5 ± 0.2", "unit": "nM"}
    ]}
  ]
}
